Data taken from US7772180B2, “Hepatitis C virus inhibitors” (Bristol-Myers Squibb Company, priority 2006, dated 2010).
Read-outs that look alike come from different tables or passages of the source.

Key:
[1] = tested on: HCV replicon (strain 1b) in HUH-7 cells; experiment: HCV replicon FRET assay; assay type: cell-based, Hepatitis C virus
[2] = target: T1, HCV NS3/4A protease complex, BMS strain (UniProt P27958, species not given/STRAIN_BMS); experiment: FRET peptide assay to monitor HCV NS3/4A proteolytic activity (BMS strain); assay type: biochemical, Hepatitis C virus (genotype 1a); conditions: read-out: HCV Protease (IC50), NS3/4A BMS strain
T1 construct: other: NS3/4A BMS strain; activity range class; numeric values, unit not given; said of H77 and J4L6S; fused on or other part: A three-lysine solubilising tail at the C-terminus of NS4A; A His tag is implied by the pET21b vector and Ni-NTA purification; Both are printed for the H77 and J4L6S constructs and apply to BMS by inference
In short: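 Purified recombinant NS3/4A complex from genotype 1a BMS strain, 2-3 nM final, with RET S1 EDANS/DABCYL depsipeptide substrate at 2 μM final in HEPES pH 7.5, NaCl, Triton, glycerol, βME. Cleavage followed in real time by fluorescence. For high-potency compounds: 50 μg/ml BSA added, protease lowered to 300 pM.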

[3] = Hepatitis C virus, Huh-7, read-out: HCV Pro Replicon (EC50), HCV replicon cell assay, activity range class
[4] = Hepatitis C virus, Huh-7, read-out: HCV Pro Replicon (EC50), HCV replicon cell assay, numeric values, unit inferred
[5] = read-out: HCV Pro Replicon (EC50), HCV replicon cell assay, activity range class

T1 sequence (P27958 1027-1657, change not shown, one chain of several): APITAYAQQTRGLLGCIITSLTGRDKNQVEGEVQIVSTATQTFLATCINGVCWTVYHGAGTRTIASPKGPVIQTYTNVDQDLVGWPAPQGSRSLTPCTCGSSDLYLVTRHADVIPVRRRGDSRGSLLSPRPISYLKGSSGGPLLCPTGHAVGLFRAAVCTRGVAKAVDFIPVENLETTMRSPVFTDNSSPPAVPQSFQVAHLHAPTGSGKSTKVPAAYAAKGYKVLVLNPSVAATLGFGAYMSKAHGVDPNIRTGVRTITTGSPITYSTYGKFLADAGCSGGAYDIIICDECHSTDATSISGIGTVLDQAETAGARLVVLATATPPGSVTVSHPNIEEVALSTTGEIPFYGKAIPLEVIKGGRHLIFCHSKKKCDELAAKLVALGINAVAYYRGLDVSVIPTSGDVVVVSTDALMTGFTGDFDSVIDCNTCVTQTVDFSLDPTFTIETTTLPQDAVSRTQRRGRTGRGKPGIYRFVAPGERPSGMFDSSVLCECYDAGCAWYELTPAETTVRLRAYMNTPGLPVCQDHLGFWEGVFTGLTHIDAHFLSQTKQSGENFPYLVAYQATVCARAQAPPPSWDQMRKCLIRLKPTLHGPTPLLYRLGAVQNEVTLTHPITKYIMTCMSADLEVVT

SMILES	EC50 [1, 3] [nM]	IC50 ([2]; activity range class) [nM]	EC50 [1, 4] [nM]	IC50 ([2]; numeric values, unit inferred) [nM]	EC50 [1, 5] [nM]
C=C[C@@H]1C[C@]1(NC(=O)[C@@H]1C[C@@H](Oc2ncc(OC)c3ccc(Cl)cc23)CN1C(=O)C(C)Nc1n[s+]([O-])nc1OC)C(=O)NS(=O)(=O)C1CC1 (stereo partly shown) [Compound 236]	> 1000	> 200	–	–	–
C=C[C@@H]1C[C@]1(NC(=O)[C@@H]1C[C@@H](Oc2nccc3cc(OC)ccc23)CN1C(=O)[C@@H](Nc1nc(OC)nc(OC)n1)C(C)(C)C)C(=O)NS(=O)(=O)C1CC1 [Compound 3, N-(4,6-dimethoxy-1,3,5-triazin-2-yl)-3-methyl-L-valyl-(4R)—N-((1R,2S)-1-((cyclopropylsulfonyl)carbamoyl)-2-vinylcyclopropyl)-4-((6-methoxy-1-isoquinolinyl)oxy)-L-prolinamide]	> 1000	0.6 to 20	–	–	–
C=C[C@@H]1C[C@]1(NC(=O)[C@@H]1C[C@@H](Oc2ncc(OC)c3ccc(Cl)cc23)CN1C(=O)[C@H](Nc1cccc(C(=O)O)c1)C(C)(C)C)C(=O)NS(=O)(=O)C1CC1 [211 second isomer, N-(3-carboxyphenyl)-3-methyl-D-valyl-(4R)-4-((7-chloro-4-methoxy-1-isoquinolinyl)oxy)-N-((1R,2S)-1-((cyclopropylsulfonyl)carbamoyl)-2-vinylcyclopropyl)-L-prolinamide]	3 to 100	> 200	–	–	–
C=C[C@@H]1C[C@]1(NC(=O)[C@@H]1C[C@@H](Oc2ncc(OC)c3ccc(Cl)cc23)CN1C(=O)[C@@H](Nc1cccc(C(N)=O)c1)C(C)(C)C)C(=O)NS(=O)(=O)C1CC1 [217 first isomer, N-(3-carbamoylphenyl)-3-methyl-L-valyl-(4R)-4-((7-chloro-4-methoxy-1-isoquinolinyl)oxy)-N-((1R,2S)-1-((cyclopropylsulfonyl)carbamoyl)-2-vinylcyclopropyl)-L-prolinamide]	3 to 100	0.6 to 20	–	–	–
C=C[C@@H]1C[C@]1(NC(=O)[C@@H]1C[C@@H](Oc2ncc(OC)c3ccc(Cl)cc23)CN1C(=O)C(Nc1cccc(C#N)c1)C(C)(C)C)C(=O)NS(=O)(=O)C1CC1 (stereo partly shown) [Compound 203A]	–	–	1.54	4	–
C=C[C@@H]1C[C@]1(NC(=O)[C@@H]1C[C@@H](Oc2nc(N(C)C)cc3cc(OC)ccc23)CN1C(=O)C(Nc1ccccc1)C(C)(C)C)C(=O)NS(=O)(=O)C1CC1 (single isomer, unassigned) [19 first isomer]	3 to 100	0.6 to 20	–	–	–
C=C[C@@H]1C[C@]1(NC(=O)[C@@H]1C[C@@H](Oc2ncc(OC)c3ccc(Cl)cc23)CN1C(=O)[C@@H](Nc1ccc(C(=O)N(C)C)cc1)C(C)(C)C)C(=O)NS(=O)(=O)C1CC1 [221 first isomer, N-(4-(dimethylcarbamoyl)phenyl)-3-methyl-L-valyl-(4R)-4-((7-chloro-4-methoxy-1-isoquinolinyl)oxy)-N-((1R,2S)-1-((cyclopropylsulfonyl)carbamoyl)-2-vinylcyclopropyl)-L-prolinamide]	100 to 1000	0.6 to 20	–	–	–
C=C[C@@H]1C[C@]1(NC(=O)[C@@H]1C[C@@H](Oc2ncc(OC)c3ccc(Cl)cc23)CN1C(=O)[C@@H](Nc1cccc(C(=O)O)c1)C(C)(C)C)C(=O)NS(=O)(=O)C1CC1 [211 first isomer, N-(3-carboxyphenyl)-3-methyl-L-valyl-(4R)-4-((7-chloro-4-methoxy-1-isoquinolinyl)oxy)-N-((1R,2S)-1-((cyclopropylsulfonyl)carbamoyl)-2-vinylcyclopropyl)-L-prolinamide]	3 to 100	0.6 to 20	–	–	–
C=C[C@@H]1C[C@]1(NC(=O)[C@@H]1C[C@@H](Oc2ncc(OC)c3ccc(Cl)cc23)CN1C(=O)C(Nc1ccc(OC)nc1)C(C)(C)C)C(=O)NS(=O)(=O)C1CC1 (single isomer, unassigned) [408 first isomer]	–	0.6 to 20	–	–	3 to 100
C=C[C@@H]1C[C@]1(NC(=O)[C@@H]1C[C@@H](Oc2ncc(OC)c3ccc(Cl)cc23)CN1C(=O)C(Nc1cc(C)c([N+](=O)[O-])cn1)C(C)(C)C)C(=O)NS(=O)(=O)C1CC1 (stereo partly drawn) [Compound 23, 3-methyl-N-(4-methyl-5-nitro-2-pyridinyl)valyl-(4R)-4-((7-chloro-4-methoxy-1-isoquinolinyl)oxy)-N-((1R,2S)-1-((cyclopropylsulfonl)carbamoyl)-2-vinylcyclopropyl)-L-prolinamide]	3 to 100	0.6 to 20	–	–	–
C=CCCCCCC(Nc1ccc(OC)nc1)C(=O)N1C[C@H](Oc2ncc(OC)c3ccc(Cl)cc23)C[C@H]1C(=O)N[C@]1(C(=O)NS(=O)(=O)C2CC2)C[C@H]1C=C (stereo partly shown) [Compound 410]	–	> 200	–	–	3 to 100
C=CC1CC1(NC(=O)C1CC(Oc2ncc(OC)c3ccc(Cl)cc23)CN1C(=O)C(Nc1cccc(F)c1)C(C)(C)C)C(=O)NS(=O)(=O)C1CC1 (stereo not shown) [Compound 200B]	–	–	195	160	–
C=C[C@@H]1C[C@]1(NC(=O)[C@@H]1C[C@@H](Oc2ncc(OC)c3ccc(Cl)cc23)CN1C(=O)C(C)Nc1nsnc1OCC)C(=O)NS(=O)(=O)C1CC1 (stereo partly shown) [Compound 239]	100 to 1000	> 200	–	–	–
C=C[C@@H]1C[C@]1(NC(=O)[C@@H]1C[C@@H](Oc2ncc(OC)c3ccc(Cl)cc23)CN1C(=O)[C@@H](Nc1cccc(S(=O)(=O)N(C)C)c1)C(C)(C)C)C(=O)NS(=O)(=O)C1CC1 [219 first isomer, N-(3-(dimethylsulfamoyl)phenyl)-3-methyl-L-valyl-(4R)-4-((7-chloro-4-methoxy-1-isoquinolinyl)oxy)-N-((1R,2S)-1-((cyclopropylsulfonyl)carbamoyl)-2-vinylcyclopropyl)-L-prolinamide]	> 1000	> 200	–	–	–
C=C[C@@H]1C[C@]1(NC(=O)[C@@H]1C[C@@H](Oc2nccc3cc(OC)ccc23)CN1C(=O)[C@H](Nc1ccccn1)C(C)(C)C)C(=O)NS(=O)(=O)C1CC1 [12 second isomer, 3-methyl-N-2-pyridinyl-D-valyl-(4R)—N-((1R,2S)-1-((cyclopropylsulfonyl)carbamoyl)-2-vinylcyclopropyl)-4-((6-methoxy-1-isoquinolinyl)oxy)-L-prolinamide]	100 to 1000	20 to 200	–	–	–
C=C[C@@H]1C[C@]1(NC(=O)[C@@H]1C[C@@H](Oc2nccc3cc(OC)ccc23)CN1C(=O)[C@H](Nc1nc(C)cc(C)n1)C(C)C)C(=O)NS(=O)(=O)C1CC1 [6 first isomer, N-(4,6-dimethyl-2-pyrimidinyl)-D-valyl-(4R)—N-((1R,2S)-1-((cyclopropylsulfonyl)carbamoyl)-2-vinylcyclopropyl)-4-((6-methoxy-1-isoquinolinyl)oxy)-L-prolinamide]	> 1000	20 to 200	–	–	–
C=C[C@@H]1C[C@]1(NC(=O)[C@@H]1C[C@@H](Oc2ncc(OC)c3ccc(Cl)cc23)CN1C(=O)[C@@H](Nc1ccccc1F)C(C)(C)C)C(=O)NS(=O)(=O)C1CC1 [234 first isomer, N-(2-fluorophenyl)-3-methyl-L-valyl-(4R)-4-[(7-chloro-4-methoxy-1-isoquinolinyl)oxy]-N-((1R,2S)-1-{[(cyclopropylsulfonyl)amino]carbonyl}-2-vinylcyclopropyl)-L-prolinamide]	100 to 1000	20 to 200	–	–	–
